According to PubChem BioAssay (NCI):
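Exposure lasted 48 hours, with cells grown in 96-well plates and compounds tested at five concentrations. The concentration for full growth arrest is given as TGI.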

What was measured:
Experiment in all cases: growth of human tumour cells (NCI), 48 h
NCI-H460 lung = tested on: NCI-H460 lung
K-562 leukemia = tested on: K-562 leukemia
HL-60(TB) leukemia = tested on: HL-60(TB) leukemia
SK-OV-3 ovarian = tested on: SK-OV-3 ovarian
RXF 393 renal = tested on: RXF 393 renal
786-0 renal = tested on: 786-0 renal
MDA-N = tested on: MDA-N
IGROV1 ovarian = tested on: IGROV1 ovarian
EKVX NSCLC = tested on: EKVX NSCLC
MALME-3M melanoma = tested on: MALME-3M melanoma
SK-MEL-5 melanoma = tested on: SK-MEL-5 melanoma

SMILES	TGI (NCI-H460 lung) [µM]	TGI (K-562 leukemia) [µM]	TGI (HL-60(TB) leukemia) [µM]	TGI (SK-OV-3 ovarian) [µM]	TGI (RXF 393 renal) [µM]	TGI (786-0 renal) [µM]	TGI (MDA-N) [µM]	TGI (IGROV1 ovarian) [µM]	TGI (EKVX NSCLC) [µM]	TGI (MALME-3M melanoma) [µM]	TGI (SK-MEL-5 melanoma) [µM]
Cc1ccc2nc(NC(=O)/C(Cc3nc4ccc(Cl)cc4[nH]c3=O)=N\NC(C)(C)C)sc2c1	> 100	> 100	> 100	> 100	> 100	> 100	> 100				
CCOc1ccc(-n2nnc3c(N)nc(N)nc32)cc1	> 100	> 100		> 100		> 100	> 100	> 100	> 100	> 100	> 100
O=C1NC(=S)N(c2ccccc2)C1=O	> 100	> 100	> 100	> 100	> 100	> 100		> 100	> 100	> 100	> 100
CC1(O)OC(=O)C2=C1CCC1C2CCC2(C)C(O)CCC12 (stereo not drawn)	> 100	> 100	> 100			> 100	> 100	> 100	> 100	> 100	> 100
O=C(CSC1=NCCN1)Nc1ccccc1	> 100	> 100			33.3	50.1	59	> 100	> 100	60	
Nc1ccc(C(=O)NN2C(=O)C(Cl)C2c2ccccc2)cc1 (stereo not drawn)	> 100	> 100		> 100		> 100		> 100	> 100	> 100	> 100
Cc1nc(-c2ccc(N=Cc3ccc(N(CCOS(C)(=O)=O)CCOS(C)(=O)=O)cc3C)cc2)cs1	> 100	> 100	47.3	> 100	53.9	47.5	> 100	> 100		> 100	38.5
Nc1nc(Cl)c(N)c(NCC2(CO)CC(CCCc3ccccc3)C2)n1 (stereo not drawn)	> 100	> 100	32.2	> 100		> 51.7	> 100	> 73.9	10.1	9.92	15.4
O=C(Nc1cccc(F)c1)c1cc2ccc(O)cc2oc1=Nc1ccccc1F	> 100	> 100	7.48	15.9		17.1	17.7	7.44	6.17	18.6	9.57
COc1ccc2c(c1)CCN1CCc3cc(OC)c(OC)cc3CC21 (stereo not drawn)		> 100		> 100	> 100	> 100		> 10	> 10		
O=C(O)CNC(=O)c1c2ccccc2nc2ccccc12	> 100	> 100		> 100		> 100		> 100	> 100	> 100	> 100
Nc1ccc(CCN2CCN(CCCc3ccccc3)CC2)cc1	> 100	> 100	> 100	> 100		> 100	> 100	> 100	> 100	> 100	> 100
CCC1(COC(NC(=O)c2ccccc2)(C(F)(F)F)C(F)(F)F)COC1		> 100	> 100	> 100	> 100	> 100	> 100	> 100	> 100		> 100
CN(CCCNC(=O)c1nn(-c2ccc(Cl)cc2Cl)c2c1Cc1ccccc1-2)CCCNC(=O)c1nn(-c2ccc(Cl)cc2Cl)c2c1Cc1ccccc1-2	3.19	2.97	3.14	3.06		3.21	3.17		3.26	3.35	3.05
CC1=NN(C(=O)CSc2nc3ccc(I)cc3c(=O)n2Cc2ccccc2)C(=O)C1	> 100	74.9	> 100	77	66.2	> 100	> 100	65.4	79.8		55.2
O=C(CC(=O)Nc1ccccc1)N/N=C/c1cc(N=Nc2ccc(Br)cc2)ccc1O	> 10	> 10	6	> 10		> 10	> 10	> 10	> 10	> 10	> 10
CCN(CC)Cc1sc2nc3ccccc3n2c1-c1ccc(OC)cc1		22.7	> 100	> 100	97	> 100	7.02	> 100	75.1	> 100	
Brc1ccc(-c2cn3ccncc3n2)cc1	> 100	> 100		> 100	> 100	> 100	> 100	> 100	> 100	> 100	> 100
CC(C)(C)OC(=O)NCCC1CN(C(=O)c2ccccc2)c2ccccc21 (stereo not drawn)	56.3	> 100		> 100	99	> 100	48.4	> 100	> 100	80.9	32
COc1ccc(N=C2C(=Nc3ccc(OC)cc3)N(c3ccccc3)C(=S)N2N=C=C2Sc3ccccc3N2C)cc1	> 100	> 100		> 100	> 100	> 100	> 100	> 100	> 100	> 100	> 100
O=C(/C=C/c1csc(-c2ccccc2)n1)NCc1ccc(C(=O)NCc2ccccc2)cc1	> 100	> 100		> 100	> 100	> 100		> 100	> 100	> 100	> 100
COc1cc(/C=C(/C#N)C(N)=O)ccc1O	> 100	> 100	> 100	> 100				> 100	> 100	> 100	> 100
Cc1ccc(N=Nc2c(O)c(C(=O)Nc3ccccc3)cc3ccccc23)c([N+](=O)[O-])c1		> 100		> 100	> 100	> 100	> 100	> 100	> 100	> 100	> 100
